Series [1] can be described thus: Clearance was measured in rat after administration of compound 20 mg/kg intravenously. The format is ADME, organism-based. Set-up: dose 20 mg/kg, route intravenous. The settings on record: in vivo, iv.
A short description of series [2]: Percent oral bioavailability was measured in rat after administration of compound 20 mg/kg perorally. The format is ADME, organism-based. The following applies: in vivo.
Series [3] can be described thus: Volume distribution was measured in rat after administration of compound 20 mg/kg intravenously. Also noted: dose 20 mg/kg, route intravenous. The following applies: in vivo, iv, read-out: Vdss. It counts as ADME, organism-based.
Series [4] is described as follows: Plasma half-life was measured in rabbit after administration of compound 12 mg/kg intravenously. The settings on record: iv.
Series [5] is described as follows: Percent oral bioavailability was measured in mouse after administration of compound 20 mg/kg perorally. It counts as ADME, organism-based. The following applies: in vivo.
Series [6] is described as follows: Volume distribution was measured in rabbit after administration of compound 12 mg/kg intravenously. The settings on record: in vivo, iv, read-out: Vdss.
The target of another series is Stromelysin-1 (Homo sapiens, UniProt P08254).
Sequence of Stromelysin-1 (P08254 whole entry): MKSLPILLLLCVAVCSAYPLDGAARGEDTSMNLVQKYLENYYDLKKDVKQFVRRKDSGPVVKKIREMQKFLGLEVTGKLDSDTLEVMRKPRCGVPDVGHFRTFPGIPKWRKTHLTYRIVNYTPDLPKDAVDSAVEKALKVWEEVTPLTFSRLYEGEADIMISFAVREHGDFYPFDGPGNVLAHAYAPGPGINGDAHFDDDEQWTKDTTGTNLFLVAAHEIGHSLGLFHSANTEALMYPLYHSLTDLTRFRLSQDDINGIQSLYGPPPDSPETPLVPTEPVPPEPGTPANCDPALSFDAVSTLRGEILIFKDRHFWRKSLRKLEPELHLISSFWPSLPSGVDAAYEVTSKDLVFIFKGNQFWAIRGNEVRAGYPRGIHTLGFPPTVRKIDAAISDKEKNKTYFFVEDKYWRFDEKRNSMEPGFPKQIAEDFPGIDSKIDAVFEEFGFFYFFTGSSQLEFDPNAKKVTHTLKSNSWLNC
Series [7] is described as follows: Clearance was measured in rabbit after administration of compound 12 mg/kg intravenously. The settings on record: in vivo, iv.
Series [8] in a line: Volume distribution was measured in mouse after administration of compound 20 mg/kg intravenously. Set-up: dose 20 mg/kg, route intravenous. The following applies: in vivo, iv, read-out: Vdss. It counts as ADME, organism-based.
Series [9] has as its target 72 kDa type IV collagenase (Homo sapiens, UniProt P08253).
Description: Inhibition of gelatinase A (Matrix metalloprotease-2)
The nature of series [10]: Clearance was measured in mouse after administration of compound 20 mg/kg intravenously. It counts as ADME, organism-based. Set-up: dose 20 mg/kg, route intravenous. The following applies: in vivo, iv.
Series [11] can be described thus: Plasma half-life was measured in mouse after administration of compound 20 mg/kg intravenously. The format is ADME, organism-based. Set-up: dose 20 mg/kg, route intravenous. The settings on record: iv.
The nature of series [12]: Plasma half-life was measured in rat after administration of compound 20 mg/kg intravenously. The settings on record: iv. Also noted: dose 20 mg/kg, route intravenous. It counts as ADME, organism-based.

For orientation: clearance means the volume of plasma or blood freed of the substance per unit of time. A higher clearance goes with a high capacity for elimination. In general, bioavailability refers to dose-corrected exposure relative to a reference, in per cent. A higher bioavailability goes with much systemic uptake. In general, half-life refers to the time in which the quantity being followed falls by half. As usually defined, the Ki is a dissociation constant, usually derived from enzyme kinetics or from competition with a known ligand.

Sequence of 72 kDa type IV collagenase (P08253 whole entry): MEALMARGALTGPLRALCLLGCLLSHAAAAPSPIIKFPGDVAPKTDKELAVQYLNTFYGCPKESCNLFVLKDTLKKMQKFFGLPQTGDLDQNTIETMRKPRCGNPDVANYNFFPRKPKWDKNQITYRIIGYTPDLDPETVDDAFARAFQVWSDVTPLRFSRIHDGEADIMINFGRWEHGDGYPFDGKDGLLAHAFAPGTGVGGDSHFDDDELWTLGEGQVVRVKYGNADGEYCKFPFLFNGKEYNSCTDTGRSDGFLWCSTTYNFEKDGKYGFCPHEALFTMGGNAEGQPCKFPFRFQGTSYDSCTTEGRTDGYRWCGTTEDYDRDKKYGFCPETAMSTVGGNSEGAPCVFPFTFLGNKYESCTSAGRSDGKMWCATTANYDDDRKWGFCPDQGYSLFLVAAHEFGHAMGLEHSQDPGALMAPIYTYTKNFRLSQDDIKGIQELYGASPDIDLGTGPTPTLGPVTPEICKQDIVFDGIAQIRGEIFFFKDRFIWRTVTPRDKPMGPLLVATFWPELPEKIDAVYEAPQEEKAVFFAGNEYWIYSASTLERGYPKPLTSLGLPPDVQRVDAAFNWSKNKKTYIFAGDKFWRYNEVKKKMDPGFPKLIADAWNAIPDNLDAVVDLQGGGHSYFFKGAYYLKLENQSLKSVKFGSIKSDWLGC
Description for Stromelysin-1: Inhibition of human stromelysin-1 (Matrix metalloprotease-3)

For `CCCC[C@@H](C[C@@H](CCc1ccc(-c2ccc(F)cc2)cc1)C(=O)N[C@H](C(=O)NC)C(C)(C)C)C(=O)O`, the clearance in [1] worked out at 1.3 mL/min/kg; in [7] it was 7.6 mL/min/kg; in [10], 1.1 mL/min/kg. Also, the bioavailability in [2] is 60%; in [5], 78%. For the same molecule, the Vd in series [3] was found to be 0.32 L/kg; in series [6], 0.2 L/kg; in series [8], 0.2 L/kg. In addition, the values for the half-life in series [4], in series [11] and in series [12] were 54 min, 162 min and 264 min, respectively. In addition, the inhibition constant (Ki) was 10 nM at Stromelysin-1 and 17 nM in series [9].

The record behind these values is ChEMBL document CHEMBL1130318, “Inhibition of stromelysin-1 (MMP-3) by P1'-biphenylylethyl carboxyalkyl dipeptides” (J Med Chem, 1997).
